From patent US10004701B2, “Methods and compositions for treating infection” (UNIVERSITY OF ROCHESTER, priority 2012, dated 2018)
Where a name gives a salt, the structure may show the parent alone. Read-outs that look alike come from different tables or passages of the source.

Key:
Experiment in all cases: AK assay 384-well format, Prestwick library screening
E. faecium = type: cell-based, Enterococcus faecium; details: 50 μM final drug concentration; for fold induction at 50 µM: Enterococcus faecium, 3 h
[1] = system: S. aureus strain USA300-0114; type: cell-based, Staphylococcus aureus; details: 50 μM final drug concentration; for fold induction at 50 µM: Staphylococcus aureus, USA300, 3 h
K. pneumoniae = type: cell-based, Klebsiella pneumoniae; details: 50 μM final drug concentration; for fold induction at 50 µM: Klebsiella pneumoniae, 3 h
[2] = system: A. baumannii strain 98-37-09; type: cell-based, Acinetobacter baumannii; details: 50 μM final drug concentration; for fold induction at 50 µM: Acinetobacter baumannii, 983709, 3 h
P. aeruginosa = type: cell-based, Pseudomonas aeruginosa; details: 50 μM final drug concentration; for fold induction at 50 µM: Pseudomonas aeruginosa, 3 h
E. cloacae = type: cell-based, Enterobacter cloacae; details: 50 μM final drug concentration; for fold induction at 50 µM: Enterobacter cloacae, 3 h
E. coli = type: cell-based, Escherichia coli; details: 50 μM final drug concentration; for fold induction at 50 µM: Escherichia coli, 3 h
[3] = 384-well format, cutoff for positive-scoring molecules 3-fold increase
[4] = planktonic, cutoff for positive-scoring molecules 3-fold increase

Cc1cccc(Nc2ccccc2C(=O)O)c1C [Mefenamic acid]
fold induction at 50 µM (E. faecium; planktonic E. faecium, 384-well, cutoff for positive-scoring molecules 3-fold increase, read-out: AK-based Prestwick Library Screening Results: E. faecium (increase in extracellular AK activity)): 0.9
fold induction at 50 µM ([1]; planktonic S. aureus, 384-well, cutoff for positive-scoring molecules 3-fold increase, read-out: AK-based Prestwick Library Screening Results: S. aureus (increase in extracellular AK activity)): 0.7
fold induction at 50 µM (K. pneumoniae; planktonic K. pneumoniae, 384-well, cutoff for positive-scoring molecules 3-fold increase, read-out: AK-based Prestwick Library Screening Results: K. pneumoniae (increase in extracellular AK activity)): 0.8
fold induction at 50 µM ([2]; planktonic A. baumannii, 384-well, cutoff for positive-scoring molecules 3-fold increase, read-out: AK-based Prestwick Library Screening Results: A. baumannii (increase in extracellular AK activity)): 1.2
fold induction at 50 µM (P. aeruginosa; planktonic P. aeruginosa, 384-well, cutoff for positive-scoring molecules 3-fold increase, read-out: AK-based Prestwick Library Screening Results: P. aeruginosa (increase in extracellular AK activity)): 0.9
fold induction at 50 µM (E. cloacae; planktonic E. cloacae, 384-well, cutoff for positive-scoring molecules 3-fold increase, read-out: AK-based Prestwick Library Screening Results: E. cloacae (increase in extracellular AK activity)): 1.6
fold induction at 50 µM (E. coli; planktonic E. coli, 384-well, cutoff for positive-scoring molecules 3-fold increase, read-out: AK-based Prestwick Library Screening Results: E. coli (increase in extracellular AK activity)): 0.9

CO[C@@]1(NC(=O)Cc2cccs2)C(=O)N2C(C(=O)O)=C(COC(N)=O)CS[C@@H]21 [Cefoxitin sodium salt]
fold induction at 50 µM (E. faecium; planktonic, cutoff for positive-scoring molecules 3-fold increase, read-out: AK-based Prestwick Library Screening Results, E. faecium (fold increase in extracellular AK activity)): 1
fold induction at 50 µM ([1]; planktonic, cutoff for positive-scoring molecules 3-fold increase, read-out: AK-based Prestwick Library Screening Results, S. aureus (fold increase in extracellular AK activity)): 3.4
fold induction at 50 µM (K. pneumoniae; planktonic, cutoff for positive-scoring molecules 3-fold increase, read-out: AK-based Prestwick Library Screening Results, K. pneumoniae (fold increase in extracellular AK activity)): 3.2
fold induction at 50 µM ([2]; planktonic, cutoff for positive-scoring molecules 3-fold increase, read-out: AK-based Prestwick Library Screening Results, A. baumannii (fold increase in extracellular AK activity)): 1.3
fold induction at 50 µM (P. aeruginosa; planktonic, cutoff for positive-scoring molecules 3-fold increase, read-out: AK-based Prestwick Library Screening Results, P. aeruginosa (fold increase in extracellular AK activity)): 0.8
fold induction at 50 µM (E. cloacae; planktonic, cutoff for positive-scoring molecules 3-fold increase, read-out: AK-based Prestwick Library Screening Results, E. cloacae (fold increase in extracellular AK activity)): 1.2
fold induction at 50 µM (E. coli; planktonic, cutoff for positive-scoring molecules 3-fold increase, read-out: AK-based Prestwick Library Screening Results, E. coli (fold increase in extracellular AK activity)): 20.1

CC(C)(Oc1ccc(C2CC2(Cl)Cl)cc1)C(=O)O (centres unmarked) [Ciprofibrate]
fold induction at 50 µM (E. faecium; planktonic E. faecium, positive cutoff 3-fold increase, read-out: AK-based Prestwick library screening result, E. faecium (fold increase in extracellular AK activity)): 0.9
fold induction at 50 µM ([1]; planktonic S. aureus, positive cutoff 3-fold increase, read-out: AK-based Prestwick library screening result, S. aureus (fold increase in extracellular AK activity)): 0.7
fold induction at 50 µM (K. pneumoniae; planktonic K. pneumoniae, positive cutoff 3-fold increase, read-out: AK-based Prestwick library screening result, K. pneumoniae (fold increase in extracellular AK activity)): 0.8
fold induction at 50 µM ([2]; planktonic A. baumannii, positive cutoff 3-fold increase, read-out: AK-based Prestwick library screening result, A. baumannii (fold increase in extracellular AK activity)): 0.8
fold induction at 50 µM (P. aeruginosa; planktonic P. aeruginosa, positive cutoff 3-fold increase, read-out: AK-based Prestwick library screening result, P. aeruginosa (fold increase in extracellular AK activity)): 0.7
fold induction at 50 µM (E. cloacae; planktonic E. cloacae, positive cutoff 3-fold increase, read-out: AK-based Prestwick library screening result, E. cloacae (fold increase in extracellular AK activity)): 1.2
fold induction at 50 µM (E. coli; planktonic E. coli, positive cutoff 3-fold increase, read-out: AK-based Prestwick library screening result, E. coli (fold increase in extracellular AK activity)): 0.8

CCC(=O)OCC(=O)[C@@]1(OC(=O)CC)[C@@H](C)C[C@H]2[C@@H]3CCC4=CC(=O)C=C[C@]4(C)[C@@]3(Cl)[C@@H](O)C[C@@]21C [Beclomethasone dipropionate]
fold induction at 50 µM (E. faecium; cutoff for positive-scoring molecules 3-fold increase, read-out: AK-based Prestwick Library Screening Results, E. faecium (fold increase in extracellular AK activity)): 1
fold induction at 50 µM ([1]; cutoff for positive-scoring molecules 3-fold increase, read-out: AK-based Prestwick Library Screening Results, S. aureus (fold increase in extracellular AK activity)): 0.5
fold induction at 50 µM (K. pneumoniae; cutoff for positive-scoring molecules 3-fold increase, read-out: AK-based Prestwick Library Screening Results, K. pneumoniae (fold increase in extracellular AK activity)): 0.9
fold induction at 50 µM ([2]; cutoff for positive-scoring molecules 3-fold increase, read-out: AK-based Prestwick Library Screening Results, A. baumannii (fold increase in extracellular AK activity)): 1
fold induction at 50 µM (P. aeruginosa; cutoff for positive-scoring molecules 3-fold increase, read-out: AK-based Prestwick Library Screening Results, P. aeruginosa (fold increase in extracellular AK activity)): 1
fold induction at 50 µM (E. cloacae; cutoff for positive-scoring molecules 3-fold increase, read-out: AK-based Prestwick Library Screening Results, E. cloacae (fold increase in extracellular AK activity)): 1.5
fold induction at 50 µM (E. coli; cutoff for positive-scoring molecules 3-fold increase, read-out: AK-based Prestwick Library Screening Results, E. coli (fold increase in extracellular AK activity)): 1.1

CC(=O)Oc1cc(C(C)C)c(OCCN(C)C)cc1C.Cl [Moxisylyte hydrochoride]
AK-based Prestwick Library Screening Results, E. faecium (increase in extracellular AK activity) (E. faecium; [3]): 0.9
AK-based Prestwick Library Screening Results, S. aureus (increase in extracellular AK activity) [1, 3]: 1.1
AK-based Prestwick Library Screening Results, K. pneumoniae (increase in extracellular AK activity) (K. pneumoniae; [3]): 1.0
AK-based Prestwick Library Screening Results, A. baumannii (increase in extracellular AK activity) [2, 3]: 1.1
AK-based Prestwick Library Screening Results, P. aeruginosa (increase in extracellular AK activity) (P. aeruginosa; [3]): 1.1
AK-based Prestwick Library Screening Results, E. cloacae (increase in extracellular AK activity) (E. cloacae; [3]): 1.6
AK-based Prestwick Library Screening Results, E. coli (increase in extracellular AK activity) (E. coli; [3]): 1.2

CCc1cccc(CC)c1NC(=O)CN(CC(=O)O)CC(=O)O [Etifenin]
fold induction at 50 µM (E. faecium; planktonic E. faecium, cutoff for positive-scoring molecules 3-fold increase, read-out: AK-based Prestwick Library Screening Results, E. faecium (increase in extracellular AK activity)): 0.9
fold induction at 50 µM ([1]; planktonic S. aureus, cutoff for positive-scoring molecules 3-fold increase, read-out: AK-based Prestwick Library Screening Results, S. aureus (increase in extracellular AK activity)): 0.5
fold induction at 50 µM (K. pneumoniae; planktonic K. pneumoniae, cutoff for positive-scoring molecules 3-fold increase, read-out: AK-based Prestwick Library Screening Results, K. pneumoniae (increase in extracellular AK activity)): 0.8
fold induction at 50 µM ([2]; planktonic A. baumannii, cutoff for positive-scoring molecules 3-fold increase, read-out: AK-based Prestwick Library Screening Results, A. baumannii (increase in extracellular AK activity)): 0.9
fold induction at 50 µM (P. aeruginosa; planktonic P. aeruginosa, cutoff for positive-scoring molecules 3-fold increase, read-out: AK-based Prestwick Library Screening Results, P. aeruginosa (increase in extracellular AK activity)): 0.9
fold induction at 50 µM (E. cloacae; planktonic E. cloacae, cutoff for positive-scoring molecules 3-fold increase, read-out: AK-based Prestwick Library Screening Results, E. cloacae (increase in extracellular AK activity)): 1
fold induction at 50 µM (E. coli; planktonic E. coli, cutoff for positive-scoring molecules 3-fold increase, read-out: AK-based Prestwick Library Screening Results, E. coli (increase in extracellular AK activity)): 1.1

Trimipramine maleate salt
AK-based Prestwick Library Screening Results, E. faecium (fold increase in extracellular AK activity) (E. faecium; [4]): 0.9
AK-based Prestwick Library Screening Results, S. aureus (fold increase in extracellular AK activity) [1, 4]: 0.5
AK-based Prestwick Library Screening Results, K. pneumoniae (fold increase in extracellular AK activity) (K. pneumoniae; [4]): 0.6
AK-based Prestwick Library Screening Results, A. baumannii (fold increase in extracellular AK activity) [2, 4]: 0.6
AK-based Prestwick Library Screening Results, P. aeruginosa (fold increase in extracellular AK activity) (P. aeruginosa; [4]): 0.6
AK-based Prestwick Library Screening Results, E. cloacae (fold increase in extracellular AK activity) (E. cloacae; [4]): 0.6
AK-based Prestwick Library Screening Results, E. coli (fold increase in extracellular AK activity) (E. coli; [4]): 0.6

Cc1cccc(C)c1N=C1NCCCS1 [Xylazine]
fold induction at 50 µM (E. faecium; planktonic E. faecium, […], read-out: AK-based Prestwick Library Screening Results, E. faecium (increase in extracellular AK activity)): 0.9
fold induction at 50 µM ([1]; planktonic S. aureus, […], read-out: AK-based Prestwick Library Screening Results, S. aureus (increase in extracellular AK activity)): 0.8
fold induction at 50 µM (K. pneumoniae; planktonic K. pneumoniae, […], read-out: AK-based Prestwick Library Screening Results, K. pneumoniae (increase in extracellular AK activity)): 0.7
fold induction at 50 µM ([2]; planktonic A. baumannii, […], read-out: AK-based Prestwick Library Screening Results, A. baumannii (increase in extracellular AK activity)): 0.9
fold induction at 50 µM (P. aeruginosa; planktonic P. aeruginosa, […], read-out: AK-based Prestwick Library Screening Results, P. aeruginosa (increase in extracellular AK activity)): 0.9
fold induction at 50 µM (E. cloacae; planktonic E. cloacae, […], read-out: AK-based Prestwick Library Screening Results, E. cloacae (increase in extracellular AK activity)): 1.4
fold induction at 50 µM (E. coli; planktonic E. coli, […], read-out: AK-based Prestwick Library Screening Results, E. coli (increase in extracellular AK activity)): 0.8
